In patent publication US9695155B2, “Herbicidal substituted pyrimidinyloxy benzene compounds” (E. I. DU PONT DE NEMOURS AND COMPANY, priority 2013, dated 2017):

Experiments:
[1] = system: yellow nutsedge; experiment: Test C postemergence; assay type: in vivo, Cyperus esculentus
Method in brief: (§1)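 Plants were kept under greenhouse conditions for 13–15 days following spray. Pre-emergent application went to soil (loam–sand), post-emergent to foliage at 1–4 leaves. Evaluation: visual, percent control against untreated checks.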

[2] = system: morningglory; experiment: Test C postemergence; assay type: in vivo, Ipomoea coccinea
Method in brief: as §1

[3] = system: barnyardgrass; experiment: Test A preemergence; assay type: in vivo, Echinochloa crus-galli
Method in brief: (§2)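 Greenhouse pot test, loam/sand soil. Formulation: non-phytotoxic solvent mix plus surfactant. Pre: directed spray onto soil after sowing. Post: plants at 1–2 leaf, 2–10 cm. Rated visually vs untreated controls at ~10 d, 0 (no effect) to 100 (complete control).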

[4] = system: galium; experiment: Test C preemergence; assay type: in vivo, Galium aparine; conditions: Galium, pre-emergence
Method in brief: as §1

[5] = system: wild oat; experiment: Test C postemergence; assay type: in vivo, Avena fatua
Method in brief: as §1

[6] = system: kochia; experiment: Test C postemergence; assay type: in vivo, Kochia scoparia; conditions: Bassia scoparia, post-emergence
Method in brief: as §1

[7] = system: blackgrass; experiment: Test C postemergence; assay type: in vivo, Alopecurus myosuroides; conditions: Alopecurus myosuroides, post-emergence
Method in brief: as §1

[8] = system: morningglory; experiment: Test C preemergence; assay type: in vivo, Ipomoea coccinea; conditions: Ipomoea, pre-emergence
Method in brief: as §1

[9] = system: rice; experiment: Test B flooded paddy test; assay type: in vivo, Oryza sativa; conditions: Oryza sativa; Flood, 250 g ai/ha; 0 to 100 scale where 0 is no effect and 100 is complete control; read-out: Plant response rating, Rice
Method in brief: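 Evaluation is visual, against untreated controls, 13 to 15 days after treatment. Before treatment, plants reached the 2-leaf stage; pots were then flooded 3 cm deep, compound was added to the water, and that level was maintained. Ratings run 0 to 100, with 100 meaning complete control.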

[10] = system: corn; experiment: Test C preemergence; assay type: in vivo, Zea mays; conditions: Zea mays, pre-emergence
Method in brief: as §1

[11] = system: velvetleaf; experiment: Test A postemergence; assay type: in vivo, Abutilon theophrasti; conditions: 0 to 100 scale where 0 is no effect and 100 is complete control
Method in brief: as §2

[12] = system: yellow nutsedge; experiment: Test C preemergence; assay type: in vivo, Cyperus esculentus; conditions: Cyperus, pre-emergence
Method in brief: as §1

[13] = system: oilseed rape; experiment: Test C preemergence; assay type: in vivo, Brassica napus; conditions: Brassica napus, pre-emergence
Method in brief: as §1

[14] = 31 g ai/ha, postemergence, visual rating, scale 0 to 100 (0 no effect, 100 complete control), 13 to 15 days

FC(F)c1cccc(Oc2ncc(Cl)cn2)c1-n1cc(Br)cn1 [Compound 194, 2-[2-(4-bromo-1H-pyrazol-1-yl)-3-(difluoromethyl)phenoxy]-5-chloropyrimidine]
Nutsedge, Yellow plant response rating [1, 14]: 5 | pest or weed control at 125 g/ha ([1]; Cyperus, post-emergence, 125 g ai/ha, postemergence, visual rating, scale 0 to 100 (0 no effect, 100 complete control), read-out: Plant response rating, Nutsedge, Yellow): 5% | pest or weed control at 250 g/ha ([1]; Cyperus, post-emergence, 250 g ai/ha, postemergence, read-out: Plant response rating (0 to 100), Nutsedge, Yellow): 5% | pest or weed control at 62 g/ha ([1]; Cyperus, post-emergence, Postemergence, 62 g ai/ha, scale 0 to 100 (0 no effect, 100 complete control), 13 to 15 days, read-out: Plant response rating, Nutsedge, Yellow): 5% | Morningglory plant response rating [2, 14]: 50 | pest or weed control at 125 g/ha ([2]; Ipomoea, post-emergence, 125 g ai/ha, postemergence, visual rating, scale 0 to 100 (0 no effect, 100 complete control), read-out: Plant response rating, Morningglory): 80% | pest or weed control at 250 g/ha ([2]; Ipomoea, post-emergence, 250 g ai/ha, postemergence, read-out: Plant response rating (0 to 100), Morningglory): 95% | pest or weed control at 62 g/ha ([2]; Ipomoea, post-emergence, Postemergence, 62 g ai/ha, scale 0 to 100 (0 no effect, 100 complete control), 13 to 15 days, read-out: Plant response rating, Morningglory): 80% | Barnyardgrass plant response rating (0 to 100 scale, 0 is no effect, 100 is complete control) ([3]; 125 g ai/ha): 80 | pest or weed control at 500 g/ha ([3]; Echinochloa crus-galli, pre-emergence, 240 h, 500 g ai/ha, 0 to 100 scale where 0 is no effect and 100 is complete control, read-out: Barnyardgrass plant response rating): 100% | pest or weed control at 125 g/ha ([4]; 125 g ai/ha, preemergence, scale 0 (no effect) to 100 (complete control), read-out: Galium plant response rating): 90% | pest or weed control at 250 g/ha ([4]; 250 g ai/ha, preemergence, scale 0 (no effect) to 100 (complete control), read-out: Galium plant response rating): 100% | pest or weed control at 62 g/ha ([4]; Preemergence, 62 g ai/ha, scale 0 to 100, 0 no effect, 100 complete control, read-out: Plant response rating, Galium): 90% | Oat, Wild plant response rating [5, 14]: 5 | pest or weed control at 125 g/ha ([5]; Avena fatua, post-emergence, 125 g ai/ha, postemergence, visual rating, scale 0 to 100 (0 no effect, 100 complete control), read-out: Plant response rating, Oat, Wild): 40% | pest or weed control at 250 g/ha ([5]; Avena fatua, post-emergence, 250 g ai/ha, postemergence, read-out: Plant response rating (0 to 100), Oat, Wild): 45% | pest or weed control at 62 g/ha ([5]; Avena fatua, post-emergence, Postemergence, 62 g ai/ha, scale 0 to 100 (0 no effect, 100 complete control), 13 to 15 days, read-out: Plant response rating, Oat, Wild): 15% | pest or weed control at 31 g/ha ([6]; 31 g ai/ha, postemergence, visual rating, scale 0 to 100 (0 no effect, 100 complete control), 13 to 15 days, read-out: Kochia plant response rating): 90% | pest or weed control at 125 g/ha ([6]; 125 g ai/ha, postemergence, visual rating, scale 0 to 100 (0 no effect, 100 complete control), read-out: Plant response rating, Kochia): 90% | pest or weed control at 250 g/ha ([6]; 250 g ai/ha, postemergence, read-out: Plant response rating (0 to 100), Kochia): 95% | pest or weed control at 62 g/ha ([6]; Postemergence, 62 g ai/ha, scale 0 to 100 (0 no effect, 100 complete control), 13 to 15 days, read-out: Plant response rating, Kochia): 90% | pest or weed control at 31 g/ha ([7]; 31 g ai/ha, postemergence, visual rating, scale 0 to 100 (0 no effect, 100 complete control), 13 to 15 days, read-out: Blackgrass plant response rating): 15% | pest or weed control at 125 g/ha ([7]; 125 g ai/ha, postemergence, visual rating, scale 0 to 100 (0 no effect, 100 complete control), read-out: Plant response rating, Blackgrass): 30% | pest or weed control at 250 g/ha ([7]; 250 g ai/ha, postemergence, read-out: Plant response rating (0 to 100), Blackgrass): 35% | pest or weed control at 62 g/ha ([7]; Postemergence, 62 g ai/ha, scale 0 to 100 (0 no effect, 100 complete control), 13 to 15 days, read-out: Plant response rating, Blackgrass): 20% | pest or weed control at 125 g/ha ([8]; 125 g ai/ha, preemergence, scale 0 (no effect) to 100 (complete control), read-out: Morningglory plant response rating): 95% | pest or weed control at 250 g/ha ([8]; 250 g ai/ha, preemergence, scale 0 (no effect) to 100 (complete control), read-out: Morningglory plant response rating): 98% | pest or weed control at 62 g/ha ([8]; Preemergence, 62 g ai/ha, scale 0 to 100, 0 no effect, 100 complete control, read-out: Plant response rating, Morningglory): 0% | plant injury at 250 g/ha [9]: 0% | plant injury at 125 g/ha ([10]; 125 g ai/ha, preemergence, scale 0 (no effect) to 100 (complete control), read-out: Corn plant response rating): 15% | plant injury at 250 g/ha ([10]; 250 g ai/ha, preemergence, scale 0 (no effect) to 100 (complete control), read-out: Corn plant response rating): 25% | Corn plant response rating (crop injury, 0 = no effect, 100 = complete kill) at 62 g/ha ([10]; Preemergence, 62 g ai/ha, scale 0 to 100, 0 no effect, 100 complete control): 0% | Velvetleaf plant response rating ([11]; 125 g ai/ha): 100 | pest or weed control at 500 g/ha ([11]; Abutilon theophrasti, post-emergence, 240 h, 500 g ai/ha, read-out: Plant response rating, Velvetleaf): 100% | pest or weed control at 125 g/ha ([12]; 125 g ai/ha, preemergence, scale 0 (no effect) to 100 (complete control), read-out: Nutsedge, Yellow plant response rating): 0% | pest or weed control at 250 g/ha ([12]; 250 g ai/ha, preemergence, scale 0 (no effect) to 100 (complete control), read-out: Nutsedge, Yellow plant response rating): 25% | pest or weed control at 62 g/ha ([12]; Preemergence, 62 g ai/ha, scale 0 to 100, 0 no effect, 100 complete control, read-out: Plant response rating, Nutsedge, Yellow): 0% | plant injury at 125 g/ha ([13]; 125 g ai/ha, preemergence, scale 0 (no effect) to 100 (complete control), read-out: Oilseed Rape plant response rating): 90% | plant injury at 250 g/ha ([13]; 250 g ai/ha, preemergence, scale 0 (no effect) to 100 (complete control), read-out: Oilseed Rape plant response rating): 100% | plant injury at 62 g/ha ([13]; Preemergence, 62 g ai/ha, scale 0 to 100, 0 no effect, 100 complete control, read-out: Plant response rating, Oilseed Rape): 30%
